# US11793782B2, “Therapeutic agents for neurodegenerative diseases” (priority 2017, dated 2023)
# What was measured:
# [1] = tested on: patients with cerebellar ataxia; conditions: cited from earlier work
# [2] = tested on: downbeat nystagmus patients; assay: Case studies, downbeat nystagmus patients; assay type: in vivo, human; conditions: downbeat nystagmus Patient 2
# [3] = tested on: Tay-Sachs disease patients; assay: Case studies, Tay-Sachs disease patients (SARA, SCAFI, MoCA); assay type: in vivo, human
# From the text: For example, to evaluate overall neurological status, mDRS, a four-domain scale (ambulation, manipulation, language and swallowing), may be applied. Cerebellar function may be evaluated using SARA, an eight-item clinical rating scale (gait, stance, sitting, speech, fine motor function and taxis; range 0-40, where 0 is the best neurological status and 40 the worst), and SCAFI, comprising the 8-m-Walking-Time (8 MW; performed by having patients walking twice as quickly as possible from one line to another excluding turning), 9-Hole-Peg-Test (9HPT) and the number of “PATA” repetitions over 10 s. Subjective impairment and quality of life may be evaluated using the EQ-5D-5L questionnaire and VAS. To assess ocular motor function, 3-dimensional videooculography (EyeSeeCam) may be used to measure the peak velocity of saccades, gain of smooth pursuit, peak slow phase velocity of gaze-evoked nystagmus (gaze-holding function), peak slow phase velocity of optokinetic nystagmus, and gain of horizontal vestibulo-ocular reflex. To evaluate the cognitive state, WAIS-R or WISC-IV, and MoCA, assessing different cognitive domains, including attention and concentration, executive functions, memory, language, visuoconstructional skills, conceptual thinking, calculations, and orientation with a maximum of 30 points and a cut-off score of 26, may be used. The skilled person will know how to perform these and other such tests.
# Before treatment was commenced, examination of the patient indicated a Scale for Assessment and Rating of Ataxia (SARA) score of 15.5/40. In addition, results from the patient's Spinocerebellar Ataxia Functional Index (SCAFI) analysis were: • Mean 8-meters Walking Test (8 MW): 21.6 s • MW 9-Hole Pegboard Test Dominant (9HPTD) (right): 48.3 s • MW 9-Hole Pegboard Test Non-Dominant (9HPTND): 44.9 s • MW PATA Word Test: 20 • Montreal Cognitive Assessment (MoCA): 18/30
# The day following this examination, the patient was started on therapy with acetyl-leucine, at a dose of 3 g per day for the first week, followed by a dose of 5 g per day for the second week onwards.
# The day of the examination, the patient was started on therapy with acetyl-leucine at a dose of 3 g per day for the first week, followed by a dose of 5 g per day for the second week onwards.
# The patient was started on therapy with acetyl-leucine at a dose of 1.5 g per day for the first week, followed by a dose of 3 g per day for the second week onwards.
# [4] = tested on: Mucopolysaccharidosis Type VII (MPS VII) patient fibroblasts; assay: Lysosomal volume via LysoTracker, MPS VII fibroblasts; assay type: cell-based, human; conditions: 1 mM, 6 days
# [5] = tested on: SCA 1 patient; assay: Case study, Spinocerebellar Ataxia (SCA) 1; assay type: in vivo, human
# From the text: The patient in this case study was a person who was genetically diagnosed with Spinocerebellar Ataxia (SCA) 1. Before treatment, the patient had severe problems with speaking and swallowing, tremor of both arms, spasticity and moderate ataxia of stance and gait. The patient also had problems sleeping.
# [6] = tested on: vertigo patients; conditions: used in France to treat acute vertigo since 1957; cited from earlier work
# [7] = tested on: progressive supranuclear palsy patients; assay: Case studies, progressive supranuclear palsy patients; assay type: in vivo, human; conditions: for Clinical observation: 5 g per day; for Symptoms after stopping medication: about two months later
# Experimental: After 27 days of acetyl-leucine treatment, medication was stopped and the patient was re-examined 60 days later. […] Gait analysis was performed before treatment commenced. […] Gait analysis was performed before treatment commenced. After 17 days of treatment, medication was stopped and the patient was re-examined 4 days later. […] Gait analysis was performed before treatment commenced. After three weeks of treatment, medication was stopped and the patient was re-examined.
# [8] = tested on: Sandhoff disease patient fibroblasts; assay: Glycosphingolipid (GSL) levels by HPLC, Sandhoff fibroblasts; assay type: cell-based, human; conditions: 1 mM for 6 days
# [9] = tested on: SCA 28 patient; assay: Case study, spinocerebellar ataxia 28 (SCA 28); assay type: in vivo, human
# Experimental: A gait analysis was performed before treatment commenced. After about one month of treatment, medication was stopped and the patient was evaluated. […] The patient reported that they no longer walked like a robot and could climb the stairs without using the banisters.
structure (smiles),measurement,setting,value
CC(=O)NC(CC(C)C)C(=O)O (racemic) [acetyl-DL-leucine],PET study in patients with ataxia,[1]; Becker-Bense et al. (2015),increased metabolism in the midbrain and lower brainstem in responders
same,"Cerebellar ataxia, another case series",[1]; Pelz et al. (2015),did not find benefit
same,Quantitative gait analysis,[1]; Schniepp et al. (2015),improved temporal gait variability
same,"Cerebellar ataxia, case series",[1]; Strupp et al. (2013),symptomatic improvement of cerebellar ataxia
same,Self-chosen velocity (gait analysis),"[2]; about one month after stopping treatment, decrease from 85",72 cm/s
same,Maximal gait velocity,"[2]; about one month after stopping treatment, decrease from 155",113 cm/s
same,Self-chosen velocity (gait analysis),"[2]; on treatment, increase from 56",85 cm/s
same,Overall symptoms,[3]; Tay-Sachs Patient 1,improvement in symptoms
same,SARA,"[3]; Tay-Sachs Patient 1, 5 g per day, after 4 months, baseline 15.5/40",17/40
same,MoCA,"[3]; Tay-Sachs Patient 1, after 4 months, baseline 18/30",22/30
same,PATA,"[3]; Tay-Sachs Patient 1, after 4 months, baseline 20",21
same,8MWT,"[3]; Tay-Sachs Patient 1, after 4 months, baseline 21.6 sec",25.49 s
same,9HPTND,"[3]; Tay-Sachs Patient 1, after 4 months, baseline 44.9 sec",47.09 s
same,9HPTD,"[3]; Tay-Sachs Patient 1, after 4 months, baseline 48.3 sec",48.67 s
same,Clinical observation,"[3]; Tay-Sachs Patient 1, after four months","stable condition with slightly improved cognitive function but had deterioration of stance, gait and fine motor function"
same,Clinical observation,"[3]; Tay-Sachs Patient 1, after one month",improved fine motor skills and reduced hand tremor
same,MoCA,"[3]; Tay-Sachs Patient 1, after one month, baseline 18/30",21/30
same,PATA,"[3]; Tay-Sachs Patient 1, after one month, baseline 20",22
same,8MWT,"[3]; Tay-Sachs Patient 1, after one month, baseline 21.6 sec",7 s
same,9HPTND,"[3]; Tay-Sachs Patient 1, after one month, baseline 44.9 sec",40.1 s
same,9HPTD,"[3]; Tay-Sachs Patient 1, after one month, baseline 48.3 sec",45.9 s
same,SARA,"[3]; Tay-Sachs Patient 2, 5 g per day, after one month, baseline 10.5/40",5/40
same,Clinical observation,"[3]; Tay-Sachs Patient 2, after one month","increased enunciation, improved postural stability, and enhanced cognitive function"
same,8MWT,"[3]; Tay-Sachs Patient 2, after one month, baseline 12.5 sec",9.55 s
same,PATA,"[3]; Tay-Sachs Patient 2, after one month, baseline 18",17
same,MoCA,"[3]; Tay-Sachs Patient 2, after one month, baseline 21/30",25/30
same,9HPTD,"[3]; Tay-Sachs Patient 2, after one month, baseline 21.5 sec",34.97 s
same,9HPTND,"[3]; Tay-Sachs Patient 2, after one month, baseline 35.5 sec",39.34 s
same,SARA,"[3]; Tay-Sachs Patient 3, 3 g per day, after one month, baseline 36/40",33/40
same,Clinical observation,"[3]; Tay-Sachs Patient 3, after one month",increased fine motor skills
same,mRDS,"[3]; Tay-Sachs Patient 3, after one month, baseline 18/24",16/24
same,EQ-5D-5L visual scale,"[3]; Tay-Sachs Patient 3, after one month, baseline 50",60
same,8MWT,"[3]; Tay-Sachs Patient 3, after one month, with support of one arm, baseline 18.1 (only with strong support)",11.75 (with support
same,LysoTracker fluorescence relative to untreated disease fibroblasts,[4],trend in reducing LysoTracker fluorescence
same,Symptoms,"[5]; 5 g/day, three weeks on medication",all symptoms significantly improved
same,Side-effects,[5]; over two years on the same dosage,without any side-effects
same,Intensity of signs and symptoms after stopping,[5]; two weeks after medication was stopped,the same as before therapy
same,Safety profile,[6],excellent safety profile
same,Symptoms after suspension of treatment,[7]; PSP Patient 1,symptoms worsened
same,Clinical observation,"[7]; PSP Patient 1, 27 days of treatment",significant reduction of dizziness and slight improvement of gait
same,PSPRS Score,"[7]; PSP Patient 1, re-examined about two months later",remained stable
same,Clinical observation,"[7]; PSP Patient 2, 17 days of treatment, re-examined 4 days after stopping",no significant improvement of gait or hypokinetic rigid syndrome
same,Symptoms after stopping medication,[7]; PSP Patient 2,no deterioration of symptoms
same,Coefficient of variation (temporal),"[7]; PSP Patient 2, after 17 days of treatment, before 8.5",6.6
same,Track width,"[7]; PSP Patient 2, after 17 days of treatment, before 10.3",9.3 cm
same,Functional Gait Assessment,"[7]; PSP Patient 2, after 17 days of treatment, before 15/30",15/30
same,Double stance,"[7]; PSP Patient 2, after 17 days of treatment, before 34.5",28.6%
same,speed,"[7]; PSP Patient 2, after 17 days of treatment, before 51",68 cm/s
same,Step cycle length,"[7]; PSP Patient 2, after 17 days of treatment, before 66",82 cm
same,cadence,"[7]; PSP Patient 2, after 17 days of treatment, before 93",99 steps/minute
same,Max. speed,"[7]; PSP Patient 2, after 17 days of treatment, before 123",98 cm/s
same,Clinical observation,"[7]; PSP Patient 3, 17 days of treatment, re-examined 4 days after stopping",no significant improvement of gait or hypokinetic rigid syndrome
same,Symptoms after stopping medication,[7]; PSP Patient 3,no deterioration of symptoms
same,Coefficient of variation (temporal),"[7]; PSP Patient 3, after 17 days of treatment, before 3.6",3.1
same,Track width,"[7]; PSP Patient 3, after 17 days of treatment, before 15.5",15.1 cm
same,Double stance,"[7]; PSP Patient 3, after 17 days of treatment, before 25.8",24.3%
same,Functional Gait Assessment,"[7]; PSP Patient 3, after 17 days of treatment, before 28/30",27/30
same,speed,"[7]; PSP Patient 3, after 17 days of treatment, before 103",120 cm/s
same,cadence,"[7]; PSP Patient 3, after 17 days of treatment, before 106",112 steps/minute
same,Step cycle length,"[7]; PSP Patient 3, after 17 days of treatment, before 118",129 cm
same,Max. speed,"[7]; PSP Patient 3, after 17 days of treatment, before 163",194 cm/s
same,Clinical observation,"[7]; PSP Patient 4, after three weeks of treatment",gait with increased subjective security and with reduced frequency of falls
same,Functional Gait Assessment,"[7]; PSP Patient 4, after 3 weeks of treatment",14/30
same,Coefficient of variation (temporal),"[7]; PSP Patient 4, after 3 weeks of treatment, before 8.2",6.8
same,Track width,"[7]; PSP Patient 4, after 3 weeks of treatment, before 15.4",13.6 cm
same,speed,"[7]; PSP Patient 4, after 3 weeks of treatment, before 39",65 cm/s
same,Step cycle length,"[7]; PSP Patient 4, after 3 weeks of treatment, before 43",63 cm
same,Double stance,"[7]; PSP Patient 4, after 3 weeks of treatment, before 45.4",36%
same,Max. speed,"[7]; PSP Patient 4, after 3 weeks of treatment, before 70",93 cm/s
same,cadence,"[7]; PSP Patient 4, after 3 weeks of treatment, before 109",125 steps/minute
same,Symptoms without medication,"[7]; PSP Patient 4, after three months without medication",progression of hypokinetic-rigid syndrome
same,GSL levels,[8],trend towards decreased GSL levels
same,Clinical observation,"[9]; 5 g per day, after about one month",improvement of the symptomatology
same,Coefficient of variation (temporal),"[9]; after treatment for one month, before 4.1",2.1
same,Track width,"[9]; after treatment for one month, before 14.5",11.7 cm
same,Functional Gait Assessment,"[9]; after treatment for one month, before 24/30",23/30
same,Double stance,"[9]; after treatment for one month, before 24.9",23.8%
same,cadence,"[9]; after treatment for one month, before 100",105 steps/minute
same,Self-chosen speed,"[9]; after treatment for one month, before 101",118 cm/s
same,Step cycle length,"[9]; after treatment for one month, before 122",135 cm
same,Maximum speed,"[9]; after treatment for one month, before 188",201 cm/s
